Columns and labels:
FPTase = FPTase (Homo sapiens, UniProt P49354+P49356); assay: FPTase inhibition ([3H]FPP transfer to H-Ras); format: biochemical; details: 40 μM test compound (unless otherwise indicated)
Description: (§1) For those assays, the reaction mixtures contained the following components in 50 μl:0.25 μM [^3 H]GGPP (sp. act. 8-10 Ci/mmol), 2.5 μM Ras-CVLL, 50 mM Tris-Cl, pH 7.7, 20 mM KCl, 5 mM MgCl2, 5 μM ZnCl2, 1 mM DTT, 0.5 mM Zwittergent 3-14 and the desired amount of the compound to be tested for inhibitory potential. After pre-equilibrating the assay mixture at 30° C. in the absence of the enzyme, the reaction was initiated by addition of the enzyme (75 ng). Following an about 10 minute incubation at about 30° C., the reactions were terminated by addition of about 0.5 ml of about 4% SDS. About 40 mg of bovine brain membranes was added to the samples to enhance recovery during precipitation. […] Reactions were never allowed to proceed to more than 10% completion based on the limiting substrate. Assays for the inhibition studies of FPTase were performed analogous the GGPTase I inhibition studies, except [^3 H]GGPP was replaced with 0.25 μM of [^3 H]FPP (sp. act. 8-10 ci/mmol) and Ras-CVLL was replaced with 1 μM H-Ras.
(§2) Using the method described above, the GGPTase I and FPTase inhibitory activities of some of the compounds of the present invention were measured. The results of these measurements are provided in Tables I-VI, wherein a value of 100 indicates 100% GGPTase I or FPTase inhibition. Unless otherwise indicated, 40 μM concentration of a test compound is used. The term "alpha" refers to the position of R^1 substituent (e.g., 3,4-dichlorophenyl in Table I) on the nitrogen atom in the pyrazole ring that results in the shortest retention time using the HPLC gradient reported above, where as the term "beta" refers to the position of R^1 substituent (e.g., 3,4-dichlorophenyl in Table I) on the nitrogen atom in the pyrazole ring that results in a longer HPLC retention time than the alphα-regioisomer. Mixtures of regioisomers and/or enantiomers are used unless indicated otherwise using the above alpha and beta notations. The term "N/D" means not determined. In Tables I-VI, R^6 group indicated by *1 refers to {[N"-(1'-oxo-1'-pyrid-3-yl)methyl]-N'-carbamoyl}-3-aminopropyl moiety.

GGPTase I = biological target: T1, GGPTase I (Rattus norvegicus, UniProt P53610+Q04631); assay: GGPTase I inhibition ([3H]GGPP transfer to Ras-CVLL); format: biochemical; details: 40 μM test compound (unless otherwise indicated)
T1 construct: made in house; host or cells: Sf9 insect cells (recombinant baculovirus, co-infection)
Description: as §1, §2

Row | inhibition at 40 µM (FPTase) [%] | inhibition at 40 µM (GGPTase I) [%] | SMILES
1 | 78 | – | CS(=O)(=O)CCC(NC(=O)CCc1cc(-c2cccnc2)n[nH]1)C(N)=O (centres unmarked)
2 | – | 24 | NC(=O)C(Cc1ccc(O)cc1)NC(=O)CCc1cc(-c2cccnc2)n[nH]1 (centres unmarked)
3 | 83 | 24 | NC(=O)C(Cc1c[nH]c2ccccc12)NC(=O)CCc1cc(-c2cccnc2)n[nH]1 (centres unmarked)
4 | 57 | – | NC(=O)C(CCCNC(=O)NC(=O)c1cccnc1)NC(=O)CCCCc1cc(-c2cccnc2)n[nH]1 (centres unmarked) [IX, R^6 = *1, R^1 = HYDROGEN]
5 | – | 27 | NC(=O)C(Cc1ccccc1)NC(=O)CCCCc1cc(-c2cccnc2)n[nH]1 (centres unmarked) [IX, R^6 = BENZYL, R^1 = HYDROGEN]
6 | 58 | – | NC(=O)CNC(=O)CCCCc1cc(-c2cccnc2)n[nH]1 [IX, R^6 = HYDROGEN, R^1 = HYDROGEN]
7 | 78 | 33 | CC(C)C(NC(=O)CCCCc1cc(-c2cccnc2)n[nH]1)C(N)=O (centres unmarked) [IX, R^6 = ISOPROPYL, R^1 = HYDROGEN]
8 | 50 | – | NC(=O)C(CCCNC(=O)NC(=O)c1cccnc1)NC(=O)CCc1cc(-c2cccnc2)n[nH]1 (centres unmarked) [X, R^6 = *1, R^1 = HYDROGEN]
9 | 72 | – | CC(C)C(NC(=O)CCc1cc(-c2cccnc2)n[nH]1)C(N)=O (centres unmarked) [X, R^6 = ISOPROPYL, R^1 = HYDROGEN]

From US6191147A, “Pyrazole compounds and uses thereof” (PPD Discovery, Inc., priority 1999, dated 2001)
